Laboratory results published in US9249208B2, “Citrulline peptides derived from fibrin and recognized by rheumatoid arthritis specific autoantibodies, and the use thereof” (Biomerieux, priority 2004, dated 2016).
Where no end group is shown, it is not given here. [ ]: non-standard residue; d: D form. Cit = NC(=O)NCCC[C@H](N)C(=O)O

Key:
[1] = test system: anti-citrullinated protein autoantibodies (ACPAs); test: ELISA of citrullinated/native fibrin peptide pairs with serum mixtures A and B and control mixture (delta OD); assay type: binding, human; details: mean of two determinations
Experimental: Each pair of peptides (citrullinated and noncitrullinated) was assayed by ELISA with a mixture, in equal parts, of 10 sera having no ACPAs (control mixture) and with the 2 mixtures A and B described in Example 1.
Each pair of peptides (native and citrullinated form) was tested on the same plate and a pair of control peptides—citrullinated “filaggrin” peptide cfc6 and its corresponding native peptide cf0 (Schellekens G A, 1998, mentioned above)—was included in each experiment, which made it possible to calculate an inter-assay coefficient of variation and to perform corrections.
All the incubations were carried out for 1 h at 4° C. and were followed by washing in PBS-0.1% Tween. The peroxidase activity was visualized with a solution of ortho-phenylenediamine (2 mg/ml—Sigma) in hydrogen peroxide (0.03%—Sigma). The reaction was stopped after 5 minutes by adding 4M sulfuric acid, and the optical density (OD) at 492 nm was measured by virtue of an automatic spectrophotometer (Multiskan, Thermo Labsystems).
The specific reactivity of the mixtures of sera with regard to the citrullinated peptides corresponded to the difference between the OD obtained with the citrullinated peptide and that obtained with the corresponding native peptide (delta OD). The results correspond to the mean of two determinations. Any citrullinated peptide making it possible to obtain a delta OD of greater than 0.250 for at least one of the two mixtures A and B after coating in at least one of the three buffers, was considered to be reactive.

[2] = test system: anti-citrullinated protein autoantibodies (ACPAs); test: ELISA of reactive citrullinated fibrin peptides with the 20 individual sera of mixtures A and B; assay type: binding, human; details: for Number of positive sera: sera with delta OD not <0.25 out of sera tested (20, or 10 of mixture A only); for delta OD: best coating buffer per peptide
Experimental: The 14 peptides carrying the most reactive epitopes (delta OD≧0.5 for one or other of the mixtures of serum (A and B) with at least one of the three coating buffers) were tested independently with the 20 sera constituting the mixtures A and B, in order to evaluate the reactivity profile of each of these peptides. The tests were carried out by ELISA under the same conditions as in Example 2 above, with the exception that, for each pair of peptides, the coating buffer selected was that that had made it possible to obtain the strongest reactivity with respect to this peptide during the screening (the buffer for which the sum of the delta ODs obtained respectively for the serum mixtures A and B was at a maximum). […] Thus, for each serum, the dilution that made it possible to obtain an OD of 1 by ELISA on deiminated fibrinogen was selected (Nogueira L, 2002, mentioned above). The dilutions ranged from 1/20 to 1/2700.

[3] = Mixture A of sera 1/50, coating buffer PBS pH 7.4
[4] = Mixture A of sera 1/50, coating buffer acetate pH 5.0
[5] = Mixture A of sera 1/50, coating buffer carbonate pH 9.0
[6] = Mixture B of sera 1/50, coating buffer PBS pH 7.4
[7] = Mixture B of sera 1/50, coating buffer acetate pH 5.0
[8] = Mixture B of sera 1/50, coating buffer carbonate pH 9.0

| Substance | delta OD (citrullinated minus native peptide, 492 nm) [1, 3] | delta OD (citrullinated minus native peptide, 492 nm) [1, 4] | delta OD (citrullinated minus native peptide, 492 nm) [1, 5] | delta OD (citrullinated minus native peptide, 492 nm) [1, 6] | delta OD (citrullinated minus native peptide, 492 nm) [1, 7] | delta OD (citrullinated minus native peptide, 492 nm) [1, 8] | Number of positive sera [2] | delta OD ([2]; serum 97.0311, dilution 1/200) | other results |
| --- | --- | --- | --- | --- | --- | --- | --- | --- | --- |
| α396-410Cit404: citrullinated synthetic peptide, fibrin α-chain residues 396-410 (DSPGSGNA[Cit]PNNPDW) | 0.02 | 0.04 | 0.43 | 0.17 | 0.15 | 0.20 | – | – | – |
| α171-185Cit178,181: citrullinated synthetic peptide, fibrin α-chain residues 171-185; fits SEQ ID NO: 4 VDIDIKIX1SCX2GSCS (VDIDIKI[Cit]SC[Cit]GSCS; cysteine pairing not given here) | 0.29 | 0.15 | 0.75 | 0.21 | 0.08 | 0.47 | 9/20 | 1.95 | delta OD ([2]; serum 97.0459, dilution 1/60): 0.29; delta OD ([2]; serum 97.0468, dilution 1/700): 0.42; delta OD ([2]; serum 97.0524, dilution 1/200): 0.59; delta OD ([2]; serum 97.0794, dilution 1/50): 2.09; delta OD ([2]; serum 97.0907, dilution 1/300): 0.44; delta OD ([2]; serum 97.1474, dilution 1/20): 1.08; delta OD ([2]; serum 97.1548, dilution 1/60): 0.71; delta OD ([2]; serum 97.1795, dilution 1/50): 0.57 |
| α411-425Cit425: citrullinated synthetic peptide, fibrin α-chain residues 411-425 (GTFEEVSGNVSPGT[Cit]) | 0.16 | 0.09 | 0.56 | 0.66 | 0.38 | 0.43 | 1/20 | – | delta OD ([2]; serum 97.1210, dilution 1/300): 0.84 |
| α366-380Cit367: citrullinated synthetic peptide, fibrin α-chain residues 366-380 (E[Cit]GSAGHWTSESSVS) | 0.37 | 0.28 | 0.26 | 0.04 | 0.00 | 0.08 | – | – | – |
| α588-602Cit591: citrullinated synthetic peptide, fibrin α-chain residues 588-602 (second series) (SYN[Cit]GDSTFESKSYK) | 0.16 | 0.05 | 0.36 | 0.33 | 0.06 | 0.67 | 2/20 | – | delta OD ([2]; serum 97.0169, dilution 1/400): 1.34; delta OD ([2]; serum 97.1795, dilution 1/50): 0.79 |
| α183-197Cit186,190: citrullinated synthetic peptide, fibrin α-chain residues 183-197 (second series) (SCS[Cit]ALA[Cit]EVDLKDY) | 1.68 | 0.41 | 1.36 | 0.15 | 0.01 | 0.07 | 3/10 | 0.87 | delta OD ([2]; serum 97.0459, dilution 1/60): 3.21; delta OD ([2]; serum 97.0506, dilution 1/75): 0.85 |
| α36-50Cit38,42: citrullinated synthetic peptide, fibrin α-chain residues 36-50; fits SEQ ID NO: 2 GPX1VVEX2HQSACKDS (GP[Cit]VVE[Cit]HQSACKDS) | 2.69 | 4.00 | 3.43 | 2.65 | 4.27 | 2.64 | 12/20 | 0.71 | delta OD ([2]; serum 95.0256, dilution 1/35): 2.35; delta OD ([2]; serum 97.0323, dilution 1/120): 1.87; delta OD ([2]; serum 97.0388, dilution 1/50): 3.32; delta OD ([2]; serum 97.0459, dilution 1/60): 3.55; delta OD ([2]; serum 97.0524, dilution 1/200): 3.39; delta OD ([2]; serum 97.0530, dilution 1/50): 2.97; delta OD ([2]; serum 97.0794, dilution 1/50): 3.43; delta OD ([2]; serum 97.1436, dilution 1/150): 3.30; delta OD ([2]; serum 97.1474, dilution 1/20): 1.93; delta OD ([2]; serum 97.1715, dilution 1/300): 3.50; delta OD ([2]; serum 97.1795, dilution 1/50): 2.29 |
| β433-447Cit436,445: citrullinated synthetic peptide, fibrin β-chain residues 433-447 (second series) (WYN[Cit]CHAANPNG[Cit]YY) | 0.58 | 0.41 | 0.67 | 0.00 | 0.00 | 0.03 | 2/10 | – | delta OD ([2]; serum 97.0388, dilution 1/50): 1.14; delta OD ([2]; serum 97.0796, dilution 1/500): 0.71 |
| β420-434Cit421: citrullinated synthetic peptide, fibrin β-chain residues 420-434 (P[Cit]KQCSKEDGGGWWY) | 0.48 | 0.36 | 0.44 | 0.00 | 0.00 | 0.00 | – | – | – |
| α501-515Cit510,512: citrullinated synthetic peptide, fibrin α-chain residues 501-515; fits SEQ ID NO: 3 SGIGTLDGFX1HX2HPD (SGIGTLDGF[Cit]H[Cit]HPD) | 0.92 | 0.16 | 0.15 | 2.60 | 0.72 | 0.79 | 9/20 | – | delta OD ([2]; serum 95.0256, dilution 1/35): 2.37; delta OD ([2]; serum 97.0323, dilution 1/120): 3.23; delta OD ([2]; serum 97.0388, dilution 1/50): 2.88; delta OD ([2]; serum 97.0506, dilution 1/75): 0.44; delta OD ([2]; serum 97.0524, dilution 1/200): 2.85; delta OD ([2]; serum 97.0530, dilution 1/50): 0.69; delta OD ([2]; serum 97.0794, dilution 1/50): 3.30; delta OD ([2]; serum 97.1436, dilution 1/150): 2.80; delta OD ([2]; serum 97.1715, dilution 1/300): 1.79 |
| α259-273Cit263,271: citrullinated synthetic peptide, fibrin α-chain residues 259-273 (second series) (MELE[Cit]PGGNEIT[Cit]GG) | 0.60 | 0.14 | 0.12 | 0.69 | 0.21 | 0.20 | 13/20 | 0.29 | delta OD ([2]; serum 97.0468, dilution 1/700): 0.32; delta OD ([2]; serum 97.1474, dilution 1/20): 0.39 |
| α246-260Cit258: citrullinated synthetic peptide, fibrin α-chain residues 246-260 (PEWKALTDMPQM[Cit]ME) | 0.00 | 0.04 | 0.00 | 0.25 | 0.27 | 0.33 | – | – | – |
